Measured values: EP0536208B1, “1,2-DIHYDRO-3H-DIBENZISOQUINOLINE-1,3-DIONE ANTICANCER AGENTS” (RESEARCH CORPORATION TECHNOLOGIES, INC., priority 1990, dated 1992)

What was measured:
[1] = tested on: P-388/ADR (adriamycin-Resis-tant); assay: Survival study in tumor-bearing mice, P-388/adriamycin resistant model; format: in vivo; settings: 10^6 cells in DBA mice; 15 mg/kg; d1,5,9; intraperitoneally
From the text: Thus, in the lower level resistant cell lines, such as the ten-fold mitomycin C resistant L1210 and the tenfold adriamycin resistant 2780 ovarian cancer, Compound 1 maintained its complete activity as shown in Table II. The anti-tumor activity of compounds of the present invention in in vivo mouse murine models were studied. 3) Survival Studies In Tumor-Bearing Mice: 3.1 P-388 Leukemia Modles: One million P-388 leukemia cells originally obtained from American Type Culture Collection (Rockville, MD) are implanted into the peritoneum of adult DBA-2J male mice (Jackson Laboratories, Bar Harbor, ME). Twenty four hours later, drugs diluted in physiological saline are injected intraperitoneally at a volume of 0.1 mL/10 g body weight. The mice (10/group) are then followed for survival daily and compared to untreated tumor bearing mice. […] The perpendicular widths of the tumors are measured by caliper thrice weekly and converted to an estimated tumor mass according to the formula: ((1 X W)^2)/(2)= grams of tumor. [formula] wherein • W = width of tumor • l = length of tumor Tumor growth delay is calculated as the difference in days for tumors in treated mice to reach an estimated mass 750 mg or 1.5 g compared to that in untreated controls: Days to reach 750 mg (Treated - Control) = Days of Tumor Growth Delay [formula] […]

Melanoma = assay: Colony forming assay in fresh human tumors; format: cell-based; settings: .001 ug/mL continuously, tumor cell survival of less than 50% of control
Method: The clonogenic assays were conducted in accordance with the procedure described hereinbelow: 1) Colony Forming Assays in Soft Agar: Fresh human or murine tumors are disaggregated into single cell suspensions using mechanical, hypoosmotic and/or enzymatic (trypsin) methods. The single cells (about 5 X 10^4-10^5) are plated in 35 mm plastic petri dishes onto a 1 ml "feeder layer" of 0.3% agar dissolved in growth medium containing 5-10% vol/vol of heat-inactivated fetal bovine serum, molten 0.3% agar and the antibiotics penicillin (100 u/mL) and streptomycin (100 ug/mL). Drug exposures can be performed for one hour or continuously (drugs added to final plating medium). Tumor cell colonies > 60 uM in size are counted by automated image analysis after 10-20 days of incubation in a humidified, 5-10% CO2-gassed environment maintained at 37°C. Inhibition of colony formation is calculated based on comparisons to control (untreated) plates wherein the growth of hundreds of colonies/plate is typical. […]
Fresh human tumor specimens disaggregated to single cell suspensions and exposed to .001 ug/mL of drug continuously. Percent survival represents the fraction of tumor colonies (> 60 uM size) obtained after drug treatment compared to untreated cells of the same tumor. […] Each tumor sample is analyzed in three different petri dishes (i.e., n = 3 for each sample).

SW80p105 = assay: Activity against human colon tumor cells (MTT assay, 3 day drug exposure); format: cell-based; settings: cells plated 24 hr. prior to drug addition, read-out: Concentration for 50% inhibition of colony formation for human colon tumors
Method: (§1) For example, the compounds of the present invention were evaluated for cytotoxic activities in cloned human colon carcinomas. The clonogenic assays were conducted in accordance with the procedure described hereinbelow: 1) Colony Forming Assays in Soft Agar: Fresh human or murine tumors are disaggregated into single cell suspensions using mechanical, hypoosmotic and/or enzymatic (trypsin) methods. The single cells (about 5 X 10^4-10^5) are plated in 35 mm plastic petri dishes onto a 1 ml "feeder layer" of 0.3% agar dissolved in growth medium containing 5-10% vol/vol of heat-inactivated fetal bovine serum, molten 0.3% agar and the antibiotics penicillin (100 u/mL) and streptomycin (100 ug/mL). Drug exposures can be performed for one hour or continuously (drugs added to final plating medium). Tumor cell colonies > 60 uM in size are counted by automated image analysis after 10-20 days of incubation in a humidified, 5-10% CO2-gassed environment maintained at 37°C. Inhibition of colony formation is calculated based on comparisons to control (untreated) plates wherein the growth of hundreds of colonies/plate is typical. (Salmon SE, et al., N Engl J Med 298(24):1321-1327, 1978).
(§2) Compounds of the present invention were tested for their in vitro activity in tumor cells sensitive and resistant to standard anti-cancer agents. The tumor cell lines used in this protocol are 8226 human Myeloma^1; 8226/Dox-40^2, L-1210/Murine Leukemia, multidrug resistant L-210/^3, 2780 Human Ovarian Cancer and 2780/AD^4. Each of these resistant cell lines is known as a multidrug resistant or "MDR" cell line. These cell lines produce a 170,00 molecular weight membrane protein termed the P-glycoprotein which acts as an active drug efflux pump. Thus, once a cell produces the P-glycoprotein, it has the capability of pumping out of the cell a large variety of unrelated natural products. […] The protocol for measuring the effectiveness of compounds of the present invention is as follows: 2) In Vitro Tumor Cell Viability Assays Using MTT-Dye: Tumors are processed into a single cell suspension as described above. The cells are plated at a concentration of 3-5 X 10^4/1 mL well into plastic 96-well plates. […] Afterwards the medium containing the drug is removed, the cells are "washed" by centrifugation in fresh medium or phosphate-buffered saline (pH 7.4). A tetrazolium dye is then added (3,4,5-dimethylthiazol-2-yl)-2,5-diphenyl tetrazolium bromide (MTT). This dye forms a colored formazan product upon activation by mitochondrial reductases in viable cells. Typically, the formazan product is solubilized in acid-propanol or DMSO. The intensity of the color is proportional to viable cell numbers and this is quantitated by spectrophotometric absorbance ([…]) on a micro ELISA plate reader. Test results are calibrated in % control absorbance from untreated tumor cells (Mossman T: J Immunol Meth 65:55-63, 1983). Using the above procedure, Compound 1 was tested for its cytotoxic activity with respect to various tumor cell lines.

HT29p30 = assay: as above; format: cell-based; settings: cells plated 24 hr. prior to drug addition, read-out: Concentration for 50% inhibition of colony formation for human colon tumors
Method: as §1, §2

SMILES: CN(C)CCN1C(=O)c2cccc3cc4ccccc4c(c23)C1=O [Compound 1, 2-[2'-(dimethylamino)ethyl]-1,2-dihydro-3H-dibenz(deh)isoquinoline-1,3-dione]
- Experimental Activity, ILS (Percentage Increased Lifespan) [1]: 33 ILS
- Overall Response (Melanoma): 64%
- IC50 (SW80p105): 150 nM
- IC50 (HT29p30): 340 nM
